Reference: US11051515B2, “3-acyl-benzamides and their use as herbicides” (Bayer Aktiengesellschaft, priority 2017, dated 2021)

Experiments:
MATIN [1] = assay: Post-emergence action against MATIN; type: in vivo, Matricaria inodora; conditions: post-emergence, dosage 80 g/ha, visual assessment about 3 weeks after treatment vs untreated controls
In short: (§1)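 Weeds grown in sandy loam in greenhouse, treated at one-leaf stage (2–3 weeks after sowing) with WP or EC formulations sprayed as aqueous suspension/emulsion at 600 to […] water with 0.2% wetting agent. Visual rating after about 3 weeks versus untreated controls, as % herbicidal action (100% = plants dead, 0% = like control).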

POLCO [2] = assay: Pre-emergence action against POLCO; type: in vivo, Polygonum convolvulus; conditions: Fallopia convolvulus, 504 h; Dosage 320 g/ha, pre-emergence
In short: (§2)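 Seeds sown in sandy loam in wood-fiber pots and covered with soil. Greenhouse growth; visual damage scored after 3 weeks versus untreated controls (100% = dead, 0% = like control).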

SETVI [3] = assay: Post-emergence action against SETVI; type: in vivo, Setaria viridis; conditions: Setaria viridis, 504 h; post-emergence, dosage 80 g/ha, visual assessment about 3 weeks after treatment vs untreated controls; read-out: Post-emergence action against SETVI (herbicidal action in percent)
In short: as §1

DIGSA [4] = assay: Post-emergence action against DIGSA; type: in vivo, Digitaria sanguinalis; conditions: dosage 80 g/ha, visual assessment about 3 weeks after treatment vs untreated controls
Procedure: Seeds of monocotyledonous and dicotyledonous weed and crop plants are laid out in sandy loam soil in wood-fiber pots, covered with soil and cultivated in a greenhouse under good growth conditions. 2 to 3 weeks after sowing, the test plants are treated at the one-leaf stage. The compounds of the invention, formulated in the form of wettable powders (WP) or as emulsion concentrates (EC), are then sprayed onto the green parts of the plants in the form of an aqueous suspension or emulsion at a water application rate equating to […], with addition of 0.2% wetting agent. After the test plants have been left to stand in the greenhouse under optimal growth conditions for about 3 weeks, the action of the preparations is assessed visually in comparison to untreated controls (herbicidal action in percent (%): 100% activity=the plants have died, 0% activity=like control plants). […] At the same time, inventive compounds leave Gramineae crops such as barley, wheat, rye, millet/Sorghum, corn or rice virtually undamaged when applied post-emergence, even at high active ingredient dosages. In addition, some substances are also harmless to dicotyledonous crops such as soya, cotton, oilseed rape, sugar beet or potatoes. Some of the compounds according to the invention have high selectivity and are therefore suitable for controlling unwanted vegetation in agricultural crops by the post-emergence method. The data of Tables B18 to B34 below illustrate, in an exemplary manner, the […] herbicidal action of the compounds according to the invention, the herbicidal activity being stated in percent.

POLCO [5] = assay: Post-emergence action against POLCO; type: in vivo, Polygonum convolvulus; conditions: Fallopia convolvulus, 504 h; post-emergence, dosage 80 g/ha
In short: as §1

ABUTH [6] = assay: Post-emergence action against ABUTH; type: in vivo, Abutilon theophrasti; conditions: post-emergence, dosage 80 g/ha, visual assessment about 3 weeks after treatment vs untreated controls
In short: as §1

AVEFA [7] = assay: Pre-emergence action against AVEFA; type: in vivo, Avena fatua; conditions: dosage 320 g/ha, scored visually after 3 weeks vs untreated controls
In short: as §2

PHBPU [8] = assay: Pre-emergence action against PHBPU; type: in vivo, Pharbitis purpurea; conditions: Dosage 320 g/ha, pre-emergence
In short: as §2

ECHCG [9] = assay: Post-emergence action against ECHCG; type: in vivo, Echinochloa crus-galli; conditions: post-emergence, dosage 80 g/ha, visual assessment about 3 weeks after treatment vs untreated controls
In short: as §1

LOLRI = assay: Pre-emergence action against LOLRI; type: in vivo, Lolium rigidum; conditions: dosage 320 g/ha, scored visually after 3 weeks vs untreated controls
In short: as §2

VERPE [10] = assay: Pre-emergence action against VERPE; type: in vivo, Veronica persica; conditions: Dosage 320 g/ha, pre-emergence
In short: as §2

ECHCG [11] = assay: Pre-emergence action against ECHCG; type: in vivo, Echinochloa crus-galli; conditions: pre-emergence, dosage 320 g/ha, scored visually after 3 weeks vs untreated controls
In short: as §2

HORMU = assay: Pre-emergence action against HORMU; type: in vivo, Hordeum murinum; conditions: Dosage 320 g/ha
In short: as §2

SETVI [12] = assay: Pre-emergence action against SETVI; type: in vivo, Setaria viridis; conditions: pre-emergence, dosage 320 g/ha, scored visually after 3 weeks vs untreated controls
In short: as §2

VIOTR [13] = assay: Post-emergence action against VIOTR; type: in vivo, Viola tricolor; conditions: post-emergence, dosage 80 g/ha
In short: as §1

AMARE [14] = assay: Pre-emergence action against AMARE; type: in vivo, Amaranthus retroflexus; conditions: pre-emergence, dosage 320 g/ha, scored visually after 3 weeks vs untreated controls
In short: as §2

AMARE [15] = assay: Post-emergence action against AMARE; type: in vivo, Amaranthus retroflexus; conditions: post-emergence, dosage 80 g/ha, visual assessment about 3 weeks after treatment vs untreated controls
In short: as §1

PHBPU [16] = assay: Post-emergence action against PHBPU; type: in vivo, Pharbitis purpurea; conditions: post-emergence, dosage 80 g/ha
In short: as §1

ABUTH [17] = assay: Pre-emergence action against ABUTH; type: in vivo, Abutilon theophrasti; conditions: pre-emergence, dosage 320 g/ha, scored visually after 3 weeks vs untreated controls
In short: as §2

VIOTR [18] = assay: Pre-emergence action against VIOTR; type: in vivo, Viola tricolor; conditions: Dosage 320 g/ha, pre-emergence
In short: as §2

STEME [19] = assay: Post-emergence action against STEME; type: in vivo, Stellaria media; conditions: post-emergence, dosage 80 g/ha
In short: as §1

STEME [20] = assay: Pre-emergence action against STEME; type: in vivo, Stellaria media; conditions: Dosage 320 g/ha, pre-emergence
In short: as §2

AVEFA [21] = assay: Post-emergence action against AVEFA; type: in vivo, Avena fatua; conditions: post-emergence, dosage 80 g/ha, visual assessment about 3 weeks after treatment vs untreated controls
In short: as §1

ALOMY = assay: Pre-emergence action against ALOMY; type: in vivo, Alopecurus myosuroides; conditions: dosage 320 g/ha, pre-emergence, scored visually after 3 weeks vs untreated controls, 100% = plants have died, 0% = like control plants
In short: as §2

DIGSA [22] = assay: Pre-emergence action against DIGSA; type: in vivo, Digitaria sanguinalis; conditions: dosage 320 g/ha, scored visually after 3 weeks vs untreated controls
In short: as §2

MATIN [23] = assay: Pre-emergence action against MATIN; type: in vivo, Matricaria inodora; conditions: Dosage 320 g/ha, pre-emergence
In short: as §2

VERPE [24] = assay: Post-emergence action against VERPE; type: in vivo, Veronica persica; conditions: dosage 80 g/ha
In short: as §1

Cn1nnnc1NC(=O)c1ccc(C(F)(F)F)c(C(=O)C(F)F)c1Cl [1-163]
90%: pest or weed control at 80 g/ha (MATIN [1]; Tripleurospermum inodorum, 504 h, read-out: Post-emergence action against MATIN (herbicidal action in percent)) | pest or weed control at 320 g/ha (POLCO [2]) | pest or weed control at 80 g/ha (ABUTH [6]; Abutilon theophrasti, 504 h, read-out: Post-emergence action against ABUTH (herbicidal action in percent)) | pest or weed control at 80 g/ha (ECHCG [9]; Echinochloa crus-galli, 504 h, read-out: Post-emergence action against ECHCG (herbicidal action in percent)) | pest or weed control at 320 g/ha (LOLRI; Lolium rigidum, 504 h, read-out: Pre-emergence action against LOLRI (herbicidal activity)) | pest or weed control at 320 g/ha (HORMU; Hordeum murinum, 504 h) | pest or weed control at 80 g/ha (VIOTR [13]; Viola tricolor, 504 h) | pest or weed control at 80 g/ha (AMARE [15]; Amaranthus retroflexus, 504 h, read-out: Post-emergence action against AMARE (herbicidal action in percent)) | pest or weed control at 80 g/ha (PHBPU [16]; Ipomoea purpurea, 504 h) | pest or weed control at 80 g/ha (AVEFA [21]; Avena fatua, 504 h, read-out: Post-emergence action against AVEFA (herbicidal action in percent)) | pest or weed control at 320 g/ha (ALOMY; Alopecurus myosuroides, 504 h, read-out: Pre-emergence action against ALOMY (herbicidal activity in percent)) | pest or weed control at 80 g/ha (VERPE [24]; Veronica persica, 504 h)
80%: pest or weed control at 80 g/ha (SETVI [3]) | pest or weed control at 320 g/ha (PHBPU [8]; Ipomoea purpurea, 504 h)
100%: Post-emergence action against DIGSA (herbicidal action in percent) (DIGSA [4]) | pest or weed control at 80 g/ha (POLCO [5]) | pest or weed control at 320 g/ha (AVEFA [7]; Avena fatua, 504 h, read-out: Pre-emergence action against AVEFA (herbicidal activity)) | pest or weed control at 320 g/ha (VERPE [10]; Veronica persica, 504 h) | pest or weed control at 320 g/ha (ECHCG [11]; Echinochloa crus-galli, 504 h, read-out: Pre-emergence action against ECHCG (herbicidal activity)) | pest or weed control at 320 g/ha (SETVI [12]; Setaria viridis, 504 h, read-out: SETVI (Table B8, pre-emergence herbicidal activity)) | pest or weed control at 320 g/ha (AMARE [14]; Amaranthus retroflexus, 504 h, read-out: Pre-emergence action against AMARE (herbicidal activity)) | pest or weed control at 320 g/ha (ABUTH [17]; Abutilon theophrasti, 504 h, read-out: Pre-emergence action against ABUTH (herbicidal activity)) | pest or weed control at 320 g/ha (VIOTR [18]; Viola tricolor, 504 h) | pest or weed control at 80 g/ha (STEME [19]; Stellaria media, 504 h) | pest or weed control at 320 g/ha (STEME [20]; Stellaria media, 504 h) | Pre-emergence action against DIGSA (herbicidal activity) (DIGSA [22]) | pest or weed control at 320 g/ha (MATIN [23]; Tripleurospermum inodorum, 504 h)

CSc1c(C(=O)Nc2nnnn2C)ccc(C(F)(F)F)c1C(=O)C1CCC1 [1-284]
90: Post-emergence action against PHBPU (PHBPU [16]) | Post-emergence action against VERPE (VERPE [24])
80%: Pre-emergence action against PHBPU (PHBPU [8]) | Pre-emergence action against HORMU (HORMU) | Post-emergence action against AVEFA (herbicidal action in percent) (AVEFA [21])
100%: Post-emergence action against MATIN (herbicidal action in percent) (MATIN [1]) | Post-emergence action against ABUTH (herbicidal action in percent) (ABUTH [6]) | Post-emergence action against ECHCG (herbicidal action in percent) (ECHCG [9]) | Pre-emergence action against VERPE (VERPE [10]) | Pre-emergence action against ECHCG (herbicidal activity) (ECHCG [11]) | SETVI (Table B8, pre-emergence herbicidal activity) (SETVI [12]) | Pre-emergence action against AMARE (herbicidal activity) (AMARE [14]) | Post-emergence action against AMARE (herbicidal action in percent) (AMARE [15]) | Pre-emergence action against ABUTH (herbicidal activity) (ABUTH [17]) | Pre-emergence action against STEME (STEME [20]) | Pre-emergence action against DIGSA (herbicidal activity) (DIGSA [22]) | Pre-emergence action against MATIN (MATIN [23])
90%: Post-emergence action against DIGSA (herbicidal action in percent) (DIGSA [4]) | Pre-emergence action against AVEFA (herbicidal activity) (AVEFA [7]) | Pre-emergence action against LOLRI (herbicidal activity) (LOLRI) | Pre-emergence action against VIOTR (VIOTR [18]) | Pre-emergence action against ALOMY (herbicidal activity in percent) (ALOMY)
100: Post-emergence action against VIOTR (VIOTR [13]) | Post-emergence action against STEME (STEME [19])
